One may read the IC50 as the concentration needed to halve the response being measured.

The test addresses T1, Follicle Stimulating Hormone Receptor (FSHR) (Homo sapiens, UniProt P23945).
T1 construct: HA (N); expressed in transfected cells; host or cells: CHO-K1, transient transfection, pHM6 vector (CMV promoter)
T1 sequence (P23945 18-695): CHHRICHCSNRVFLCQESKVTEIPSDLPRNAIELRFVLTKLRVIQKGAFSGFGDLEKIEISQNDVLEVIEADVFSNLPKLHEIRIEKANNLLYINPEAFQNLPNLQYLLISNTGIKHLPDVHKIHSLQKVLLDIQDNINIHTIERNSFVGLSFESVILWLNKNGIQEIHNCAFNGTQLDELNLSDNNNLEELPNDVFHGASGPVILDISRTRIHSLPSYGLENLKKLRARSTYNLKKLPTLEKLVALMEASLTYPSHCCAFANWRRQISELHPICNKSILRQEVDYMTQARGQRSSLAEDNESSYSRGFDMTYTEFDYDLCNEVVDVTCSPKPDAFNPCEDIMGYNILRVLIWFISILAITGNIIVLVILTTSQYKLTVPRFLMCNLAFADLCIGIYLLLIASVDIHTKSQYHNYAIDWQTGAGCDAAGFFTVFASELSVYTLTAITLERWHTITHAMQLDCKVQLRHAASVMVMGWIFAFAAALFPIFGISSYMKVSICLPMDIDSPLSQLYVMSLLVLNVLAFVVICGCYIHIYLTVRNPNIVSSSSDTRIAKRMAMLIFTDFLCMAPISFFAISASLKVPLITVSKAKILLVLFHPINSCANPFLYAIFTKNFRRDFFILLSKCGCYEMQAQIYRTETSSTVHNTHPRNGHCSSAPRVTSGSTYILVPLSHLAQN
The test can be described thus: HTRF cAMP agonist assay, FSHR, transiently transfected CHO-K1 cells. To be noted: CHO-K1 cells transiently expressing human FSHR, read-out: IC50 FSHR LANCE CAMP. Type of test: cell-based. The text has this: Example 17. HTRF cAMP Agonist Assay Protocol (for FSHR, TSHR, LHCGR)
Mammalian expression vectors designed to express either Follicle Stimulating Hormone Receptor (FSHR), Thyroid Stimulating Hormone Receptor (TSHR), or Luteinizing Hormone/Choriogonadotropin Receptor (LHCGR), were generated with an HA-tag on the N-terminus. All constructs were expressed under a human cytomegalovirus (CMV) immediate early enhancer and promoter using the pHM6 expression vector. The protein coding region was confirmed by sequence analysis to be in-frame and of the expected sequence, matching the following accession numbers: FSHR NM_000145, TSHR NM_000369, and LHCGR NM_000233.
HTRF cAMP assays were performed using Chinese Hamster Ovary (CHO-K1) cell lines transiently expressing human FSH, TSH, and LHCG receptors. 48 hours before the assay, cells were washed with PBS and then dissociated from tissue culture flasks with 0.25% trypsin. Dissociated cells were quenched in full media (F-12K Medium Corning REF #10-025-CV, 10% Avantor Seradigm FB Essence Cat #10803-034, 1% Penicillin/Streptomycin Cytiva HyClone Cat #SV30010) and then collected by centrifugation at 290×g for 5 min. Cells were resuspended in full media and dispensed into 150 mm cell culture dishes (Nest Scientific Cat #715001), at 2.3×10^6 cells/flask. 7 hours later, cells were transfected using Lipofectamine transfection reagent (Invitrogen Cat #18324020). Briefly, 60 μL of lipofectamine was dispensed into 2 mL of Opti-MEM (Gibco Cat #31985070) and incubated for 5 minutes at room temperature. Then, the mixture was added onto […] of DNA and incubated for another 20 minutes at room temperature. Cells were washed with warm (37° C.) PBS. 17.5 mL of Opti-MEM was dispensed onto the cells, followed by addition of the Opti-MEM/lipofectamine/DNA mixture. Cells were incubated overnight in a 37° C., 5% CO2 cell incubator. 17-19 hours later, Opti-MEM was aspirated off the cells and replaced with full media. Cells were incubated for another 24 hours in a 37° C., 5% CO2 cell incubator.
On the day of the assay, cells were washed with PBS and then dissociated from tissue culture flasks with 0.25% trypsin. Dissociated cells were quenched in full media and then collected by centrifugation at 290×g for 5 min. Cells were resuspended in PBS^+/+ (Corning REF #20-030-CV) to a concentration of 2×10^5 cells/mL. 10 μL/well of cells (2,000 cells/well) were dispensed into 384-well Corning plates (REF #3825), in triplicate. Cells were incubated at room temperature for 2 hours.
Example FSHR Modulator compounds were diluted in assay buffer (PBS^+/+, 0.05% BSA Sigma-Aldrich A3059, 500 μM IBMX Sigma-Aldrich 15879) to 3.5× the final assay concentration. 4 μL of test agonist was added to the cells and incubated for 1 hour at room temperature. 10 μL of cAMP detection reagents (LANCE Ultra cAMP Detection Kit PerkinElmer TRF0264) were dispensed onto the cells and plates were incubated for 2 hours at room temperature (cAMP detection reagents were made according to the PerkinElmer kit protocol). Plates were read on an Envision plate reader following PerkinElmer guidelines.
Raw data for all assays was transmitted directly from plate readers into a database for processing. All assay plates contained both positive and negative control wells to allow for data normalization and scaling. In agonist assays, negative control wells contained assay buffer and positive control wells contained […] positive control (10 nM Follicle Stimulating Hormone Sigma-Aldrich F4021, 50 nM Thyroid Stimulating Hormone Sigma-Aldrich 869006, 50 nM Luteinizing Hormone MyBioSource MBS5308806, for their respective receptors). All control wells contained DMSO at a final assay concentration that matched the test compound wells. […]
Percent control data were analyzed by non-linear regression with a sigmoidal dose response algorithm in the database to yield potency and efficacy data.
On to `COc1cc2c(cc1-c1cncc(C(N)=O)c1)-c1c(c(C(=O)N3CCNC(=O)C34CC4)nn1-c1cc(Cl)cc(Cl)c1)CC2` [Compound 8-89], for which the half-maximal inhibitory concentration (IC50) stood at 18.9 nM.
`COc1cc2c(cc1-c1cncc(C(N)=O)c1)-c1c(c(C(=O)N3CCC(=O)C3(C)C)nn1-c1cc(Cl)cc(Cl)c1)CC2` [Compound 8-90]: the IC50 worked out at 6.69 nM.
For the compound `COc1cc2c(cc1-c1cncc(C(N)=O)c1)-c1c(c(C(=O)N(C)C(C)C)nn1-c1cc(Cl)cc(Cl)c1)CC2` [Compound 8-36], the 50% inhibitory concentration (IC50) came out at 4.17 nM.
`COc1cc2ccc3c(C(=O)N4CCOCC4(C)C)nn(-c4cc(Cl)cc(Cl)c4)c3c2cc1-c1ccn(C)n1` [Compound 6-07, [1-(3,5-dichlorophenyl)-7-methoxy-8-(1-methylpyrazol-3-yl)benzo[g]indazol-3-yl]-(3,3-dimethylmorpholin-4-yl)methanone]: the half-maximal inhibitory concentration (IC50) was found to be 83.2 nM.
The result for `COc1cc2c(cc1-c1cncc(C(N)=O)c1)-c1c(c(C(=O)N3[C@@H](C)COC[C@@H]3C)nn1-c1cc(Cl)cc(Cl)c1)CC2` [Compound 8-50] reads 3.43 nM.
For the compound `COc1cc2c(cc1-c1cncc(C(N)=O)c1)-c1c(c(C(=O)N3CNC(=O)C3(C)C)nn1-c1cc(Cl)cc(Cl)c1)CC2` [Compound 8-72], the IC50 was 8.99 nM.
`CCC1C(=O)NCCN1C(=O)c1nn(-c2cc(Cl)cc(Cl)c2)c2c1CCc1cc(OC)c(-c3cncc(C(N)=O)c3)cc1-2` (centres unmarked) [Compound 8-84]: the IC50 was 32.4 nM.
The result for `COc1cc2c(cc1-c1cncc(C(N)=O)c1)-c1c(c(C(=O)N(C)C(C)(C)C)nn1-c1cc(Cl)cc(Cl)c1)OC2` [Compound 2-02] reads 1.98 nM; that for `COc1cc2c(cc1-c1cncc(C(N)=O)c1)-c1c(c(C(=O)N3CCN(CC(F)(F)F)CC3(C)C)nn1-c1cc(Cl)cc(Cl)c1)CC2` [Compound 8-58, 5-(1-(3,5-dichlorophenyl)-3-(2,2-dimethyl-4-(2,2,2-trifluoroethyl)piperazine-1-carbonyl)-7-methoxy-4,5-dihydro-1H-benzo[g]indazol-8-yl)nicotinamide], 102 nM; that for `COc1cc2c(cc1-c1cncc(C(N)=O)c1)-c1c(c(C(=O)N3CCCC3)nn1-c1cc(Cl)cc(Cl)c1)CC2` [Compound 8-37], 48.4 nM.
With `COc1cc2c(cc1-c1cncc(C(N)=O)c1)-c1c(c(C(=O)N3CCC4C3CCN4C(=O)OC(C)(C)C)nn1-c1cc(Cl)cc(Cl)c1)CC2` (centres unmarked) [Compound 8-31A], the IC50 is 145 nM.
Take `COc1cc2c(cc1-c1cncc(C(N)=O)c1)-c1c(c(C(=O)N(C)C(C)(C)C)nn1-c1ccsc1)OC2` [Compound 2-04]: the concentration for half-maximal inhibition (IC50) is 7.92 nM.
`COc1cc2c(cc1-c1cncc(C(N)=O)c1)-c1c(c(C(=O)N3CC4CC3CN4)nn1-c1cc(Cl)cc(Cl)c1)CC2` (centres unmarked) [Compound 8-33]: the half-inhibitory concentration (IC50) came to 441 nM.
For the compound `COc1cc2c(cc1-c1cncc(C(N)=O)c1)-c1c(c(C(=O)N3CCNC(=O)C3(C)C)nn1-c1cc(Cl)cc(Cl)c1)SC2` [Compound 12-16], the IC50 is 20.9 nM.
For the compound `COc1cc2oc3c(C(=O)N4CCOCC4(C)C)nn(-c4ccsc4)c3c2cc1-c1cncc(C#N)c1` [Compound 4-03B], the concentration for half-maximal inhibition (IC50) was found to be 2360 nM.
The result for `COc1cc2c(cc1-c1cncc(C(N)=O)c1)-c1c(c(C(=O)N(C)C(C)(C)C)nn1-c1cc(Cl)cc(Cl)c1)SC2` [Compound 3-02, N-tert-butyl-8-(5-carbamoyl-3-pyridyl)-1-(3,5-dichlorophenyl)-7-methoxy-N-methyl-5H-isothiochromeno[4,3-c]pyrazole-3-carboxamide] reads 3.92 nM.
Turning to `COC(=O)c1cc(OC)nc(-c2cc3c(cc2OC)CCc2c(C(=O)N(C)C(C)(C)C)nn(-c4cc(Cl)cc(Cl)c4)c2-3)c1` [Compound 11-01A, methyl2-[3-[tert-butyl(methyl)carbamoyl]-1-(3,5-dichlorophenyl)-7-methoxy-4,5-dihydrobenzo[g]indazol-8-yl]-6-methoxy-pyridine-4-carboxylate], the IC50 stood at 50.1 nM.
For `COc1cc2c(cc1-c1cncc(C(N)=O)c1)-c1c(c(C(=O)N3CCN(CCN)C(=O)C3(C)C)nn1-c1cc(Cl)cc(Cl)c1)CC2` [Compound 8-71], the IC50 stood at 3730 nM.
With `COc1cc2c(cc1-c1cncc(C(N)=O)c1)-c1c(c(C(=O)N(C)C(C)(C)C)nn1-c1ccsc1)C2` [Compound 5-04, N-tert-butyl-7-(5-carbamoyl-3-pyridyl)-6-methoxy-N-methyl-1-(3-thienyl)-4H-indeno[1,2-c]pyrazole-3-carboxamide], the IC50 worked out at 8.2 nM.
Regarding `COc1cc2oc3c(C(=O)N(C)C(C)(C)C)nn(-c4ccsc4)c3c2cc1-c1cncc(C(N)=O)c1` [Compound 4-04], the 50% inhibitory concentration (IC50) is 586 nM.
The result for `COc1cc2c(cc1-c1cncc(C(N)=O)c1)-c1c(c(C(=O)N3CCOCC3(C)C)nn1-c1ccsc1)OC2` [Compound 2-03] reads 22 nM.
The result for `COc1cc2c(cc1-c1cncc(C(N)=O)c1)-c1c(c(C(=O)N3CCC[C@H]3C)nn1-c1cc(Cl)cc(Cl)c1)CC2` [Compound 8-45] reads 17.4 nM; that for `COc1cc2oc3c(C(=O)N(C)C(C)(C)C)n(-c4ccsc4)nc3c2cc1-c1cncc(C(N)=O)c1` [Compound 4-04A], 1360 nM; that for `COc1cc2c(cc1-c1cncc(C#N)c1)-c1c(c(C(=O)N3CCNC(=O)C3(C)C)nn1-c1cc(Cl)cc(Cl)c1)CC2` [Compound 8-26A], 10.3 nM.
Then `COc1cc2c(cc1-c1ccn(C)n1)-c1c(c(C(=O)N3CCOCC3(C)C)nn1-c1cc(Cl)cc(Cl)c1)CC2` [Compound 6-03, [1-(3,5-dichlorophenyl)-7-methoxy-8-(1-methylpyrazol-3-yl)-4,5-dihydrobenzo[g]indazol-3-yl]-(3,3-dimethylmorpholin-4-yl)methanone], with 163 nM; and `COc1cc2c(cc1-c1cncc(C(N)=O)c1)-c1c(c(C(=O)N3CC4CC3CN4C(=O)OC(C)(C)C)nn1-c1cc(Cl)cc(Cl)c1)CC2` (centres unmarked) [Compound 8-33A], with 105 nM; and `COc1cc2c(cc1-c1cncc(C(N)=O)c1)-c1c(c(C(=O)N(C)CC(F)(F)F)nn1-c1cc(Cl)cc(Cl)c1)CC2` [Compound 8-55], with 6.56 nM.
As to `COc1cc2c(cc1-c1cccnc1)-c1c(c(C(=O)N3CCNC(=O)C3(C)C)nn1-c1ccccn1)CC2` [Compound 15-02], the IC50 came to 477 nM.
Turning to `COc1cc2c(cc1-c1cncc(C(N)=O)c1)-c1c(c(C(=O)N3CCNC(=O)C3(C)C)nn1-c1cccnn1)CC2` [Compound 15-06], the IC50 was 3620 nM.

The record behind these values is patent US20260008783A1, “MODULATORS OF FSHR AND USES THEREOF” (Celmatix Inc., priority 2022, published 2026).
